Results as given in ChEMBL document CHEMBL3352596, “Discovery of novel inhibitors of vascular endothelial growth factor-A-Neuropilin-1 interaction by structure-based virtual screening” (Bioorg Med Chem, 2014).

Columns and labels:
[1] = target: Neuropilin-1 (Rattus norvegicus, UniProt Q9QWJ9); experiment: Inhibition of biotinylated VEGF-A165 from rat recombinant NRP-1 Fc domain
[2] = target: Neuropilin-1 (Rattus norvegicus) (UniProt Q9QWJ9); experiment: Inhibition of biotinylated VEGF-A165 from rat recombinant NRP-1 Fc domain at 100 uM

Ki [1] [µM]	inhibition [2] [%]	Compound
10.7		CCOc1cc(CNCCO)cc(Br)c1OCc1ccc(Cl)cc1Cl
	41.6	CC[C@H](C)c1ccccc1OCCCCN(CC)CC
5.2	91.5	H-ATWLPPR-OH
	52.3	CC[C@@H](C)NCCCOc1ccc(Cl)c(C)c1C
	53.3	CC(=O)Nc1ccc2nc(-c3ccccc3C)oc2c1
	45.1	OCCNCc1ccc(OCc2ccccc2)c(Cl)c1
	59.2	CCNCc1cc(Cl)c(OCc2ccccc2Cl)c(OC)c1
	44.8	CC(C)NCc1ccccc1OCc1ccc(Cl)cc1
	60.2	CCCNCc1ccc(OCc2ccc(Cl)cc2Cl)c(OC)c1
	55.3	Cc1cc(O)c(C(=O)COc2ccccc2)c(O)c1
7.3		COc1cc(CNCCO)cc(Cl)c1OCc1ccc(Cl)cc1Cl
11.3		CCOc1cc(CNCc2ccccc2)cc(Cl)c1OCc1ccccc1Cl
	60.5	COc1cc(CNCCO)cc(Br)c1OCc1ccccc1Cl
	47.3	Clc1ccc(COc2ccc(CNC3CC3)cc2)cc1
9.4		COc1cc(CNC(C)c2ccccc2)cc(Br)c1OCc1ccccc1Cl (configuration not stated)
	71.5	CCOc1cc(CNCCO)ccc1OCc1ccc(Cl)cc1Cl
